Experimental data from PMC8286840, “Identifying SARS-CoV-2 antiviral compounds by screening for small molecule inhibitors of Nsp3 papain-like protease” (Biochemical Journal, 2021).
Structures can show the parent of a compound that is named as a salt. Where two headings read alike, the source gives them in different places. Where a SMILES comes first, the peptide text is derived from it. [ ]: non-standard residue; d: D form. The star is where a group is joined. Benzoyl(4-tBu) = CC(C)(C)c1ccc(C(=O)*)cc1; Lys(Et2) = CCN(CC)CCCC[C@H](N)C(=O)O

Experiments:
[1] = target: T1, SARS-CoV-2 PLpro (nsp3 1564–1878) (Severe acute respiratory syndrome coronavirus 2, UniProt P0DTD1); test: biochemical; design: FRET-quenched peptide (Pro3) cleavage by PLpro, 10 min pre-incubation, slope over 20 min, normalised to no-compound control; details: high concentration screen, read-out: % of control remaining
[2] = target: T1, SARS-CoV-2 PLpro (nsp3 1564–1878); test: biochemical; design: FRET-quenched peptide (Pro3) cleavage by PLpro, 10 min pre-incubation, slope over 20 min, normalised to no-compound control; details: low concentration screen, read-out: % of control remaining

CCCCC/C=C\C/C=C\CCCCCCCC(=O)O [Linoleic acid]
remaining activity at 3.75 µM ([1]; Well no.=4349): 101% | remaining activity at 3.75 µM ([1]; Well no.=7029): 85.7% | remaining activity at 1.25 µM ([2]; Well no.=4349): 103% | remaining activity at 1.25 µM ([2]; Well no.=7029): 94.8%

Cn1c(=O)[nH]c2ncn(C)c2c1=O [1,7-Dimethylxanthine]
remaining activity at 3.75 µM ([1]; Well no.=691): 99.7% | remaining activity at 1.25 µM ([2]; Well no.=691): 98.6%

Fc1ccc(Cl)cc1-c1nc(Nc2ccncc2)c2nccnc2n1 [SD 208 - 2-(5-Chloro-2-fluorophenyl)-4-[(4-pyridyl)amino]pteridine]
remaining activity at 3.75 µM ([1]; Well no.=2680): 99.7% | remaining activity at 1.25 µM ([2]; Well no.=2680): 97.3%

Cn1ccc2cc3c(cc21)CCN3C(=O)Nc1cccnc1 [SB 206553 hydrochloride]
remaining activity at 3.75 µM ([1]; Well no.=1375): 101% | remaining activity at 1.25 µM ([2]; Well no.=1375): 99.8%

O[C@H]1[C@H](O)[C@@H](O)[C@H](O)[C@@H](O)[C@H]1O [Inositol]
remaining activity at 3.75 µM ([1]; Well no.=5481): 111% | remaining activity at 1.25 µM ([2]; Well no.=5481): 111%

O=C(O)CNC(=O)c1c(O)c2ccccc2n(Cc2ccccc2)c1=O [IOX2]
remaining activity at 3.75 µM ([1]; Well no.=5227): 95.1% | remaining activity at 1.25 µM ([2]; Well no.=5227): 101%

CCN(CC)CCCC[C@H](NC(=O)[C@H](CC(C)C)NC(=O)[C@H](C)NC(=O)[C@H](Cc1ccccc1)NC(=O)c1ccc(C(C)(C)C)cc1)C(=O)N[C@@H](CO)C(=O)OC [UNC3866] ({Benzoyl(4-tBu)}-FAL[Lys(Et2)]S-OMe)
remaining activity at 3.75 µM ([1]; Well no.=8220): 103% | remaining activity at 1.25 µM ([2]; Well no.=8220): 101%

N[C@@H](Cn1ccc(=O)c(O)c1)C(=O)O [L-Mimosine]
remaining activity at 3.75 µM ([1]; Well no.=3819): 94.6% | remaining activity at 1.25 µM ([2]; Well no.=3819): 92.9%

CCCN1CCO[C@@H]2c3cc(O)ccc3OC[C@H]21 (racemic)
remaining activity at 3.75 µM ([1]; Well no.=1505): 96.1% | remaining activity at 1.25 µM ([2]; Well no.=1505): 96%

CC[C@H]1CN2CCc3cc(OC)c(OC)cc3[C@@H]2C[C@@H]1C[C@H]1NCCc2cc(OC)c(OC)cc21
remaining activity at 3.75 µM ([1]; Well no.=3424): 98% | remaining activity at 1.25 µM ([2]; Well no.=3424): 92.3%

O=C(Nc1cccc(Nc2ncc(Br)c(NCCc3cnc[nH]3)n2)c1)N1CCCC1 [BX912]
remaining activity at 3.75 µM ([1]; Well no.=2979): 93.8% | remaining activity at 1.25 µM ([2]; Well no.=2979): 95.2%

O=c1ccc2ccc(OCCCCN3CCN(c4cccc5sccc45)CC3)cc2[nH]1 [Brexpiprazole]
remaining activity at 3.75 µM ([1]; Well no.=6473): 98.1% | remaining activity at 1.25 µM ([2]; Well no.=6473): 99.5%

COC(=O)N/N=C/c1c[n+]([O-])c2ccccc2[n+]1[O-] [Carbadox]
remaining activity at 3.75 µM ([1]; Well no.=2211): 93.2% | remaining activity at 1.25 µM ([2]; Well no.=2211): 98.3%

C[C@@H](O)[C@H]1C(=O)N2C(C(=O)O)=C(S[C@@H]3CN[C@H](CNS(N)(=O)=O)C3)[C@H](C)[C@H]12 [Doripenem Hydrate]
remaining activity at 3.75 µM ([1]; Well no.=5203): 104% | remaining activity at 1.25 µM ([2]; Well no.=5203): 103%

O=c1cc(-c2ccc(O)cc2)oc2cc(O)c([C@@H]3O[C@H](CO)[C@@H](O)[C@H](O)[C@H]3O)c(O)c12 [Isovitexin]
remaining activity at 3.75 µM ([1]; Well no.=3301): 98.6% | remaining activity at 1.25 µM ([2]; Well no.=3301): 99.2%

O=C(NCCO)c1cc(C(=O)NCCO)cc(C(=O)NCCO)c1 [N~1~,N~3~,N~5~-tris(2-hydroxyethyl)-1,3,5-benzenetricarboxamide]
remaining activity at 3.75 µM ([1]; Well no.=6029): 99.9% | remaining activity at 1.25 µM ([2]; Well no.=6029): 96.8%

C[C@H](O)[C@H](O)C1=Nc2c(nc(N)[nH]c2=O)NC1 [7,8-Dihydro-L-biopterin]
remaining activity at 3.75 µM ([1]; Well no.=7401): 102% | remaining activity at 1.25 µM ([2]; Well no.=7401): 110%

NC(N)=N[C@@H](CC(=O)O)C(=O)O [Guanidinosuccinic acid]
remaining activity at 3.75 µM ([1]; Well no.=8176): 101% | remaining activity at 1.25 µM ([2]; Well no.=8176): 109%

CC1(C)S[C@@H]2[C@H](NC(=O)[C@H](NC(=O)N3CCN(S(C)(=O)=O)C3=O)c3ccccc3)C(=O)N2[C@H]1C(=O)O [Mezlocillin (sodium)]
remaining activity at 3.75 µM ([1]; Well no.=7790): 102% | remaining activity at 1.25 µM ([2]; Well no.=7790): 99.7%

CN(C)C(=O)Oc1ccc[n+](C)c1 [Pyridostigmine bromide]
remaining activity at 3.75 µM ([1]; Well no.=1499): 91.4% | remaining activity at 1.25 µM ([2]; Well no.=1499): 89.1%

O=C1OC(/C=C/c2ccccc2)=NC/1=C/c1cccnc1 [TC-DAPK 6]
remaining activity at 3.75 µM ([1]; Well no.=6734): 90.3% | remaining activity at 1.25 µM ([2]; Well no.=6734): 96.1%

C[C@@H]1O[C@@H](O[C@H]2[C@H](Oc3cc(O)c4c(=O)cc(-c5ccc(O)cc5)oc4c3)O[C@H](CO)[C@@H](O)[C@@H]2O)[C@H](O)[C@H](O)[C@H]1O [Rhoifolin]
remaining activity at 3.75 µM ([1]; Well no.=3733): 98.5% | remaining activity at 1.25 µM ([2]; Well no.=3733): 95.5%

CCCCCCCCCCCCCCCC(=O)O [Palmitic acid]
remaining activity at 3.75 µM ([1]; Well no.=7077): 94.2% | remaining activity at 1.25 µM ([2]; Well no.=7077): 98.9%

CO[C@H]1CC=C2CCN3CCC4=C(CC(=O)OC4)[C@]23C1 [Dihydro-beta-erythroidine hydrobromide]
remaining activity at 3.75 µM ([1]; Well no.=690): 88.6% | remaining activity at 1.25 µM ([2]; Well no.=690): 88.8%

CN1N=C2CCN(C(=O)[C@@H](COCc3ccccc3)NC(=O)C(C)(C)N)C[C@@]2(Cc2ccccc2)C1=O [Capromorelin (Tartrate)]
remaining activity at 3.75 µM ([1]; Well no.=7235): 102% | remaining activity at 1.25 µM ([2]; Well no.=7235): 96.9%

NC(=O)NO [Hydroxyurea]
remaining activity at 3.75 µM ([1]; Well no.=566): 96.1% | remaining activity at 3.75 µM ([1]; Well no.=6544): 100% | remaining activity at 1.25 µM ([2]; Well no.=566): 97.4% | remaining activity at 1.25 µM ([2]; Well no.=6544): 103%

C[C@]12CCC(=O)C=C1C=C[C@@H]1[C@@H]2CC[C@@]2(C)[C@H]1CC[C@@]21CCC(=O)O1 [Canrenone]
remaining activity at 3.75 µM ([1]; Well no.=2181): 98% | remaining activity at 1.25 µM ([2]; Well no.=2181): 93.5%

Cc1nn(C)c(COc2ccc(N3CCN(S(=O)(=O)N(C)C)CC3)cc2)c1-c1cccc2c(CCCOc3cccc4ccccc34)c(C(=O)O)n(CCN3CCOCC3)c12 [A-1210477]
remaining activity at 3.75 µM ([1]; Well no.=6970): 101% | remaining activity at 1.25 µM ([2]; Well no.=6970): 99.5%

C[C@@H]1O[C@@H](O[C@H]2C(=O)c3c(O)cc(O)cc3O[C@@H]2c2ccc(O)c(O)c2)[C@H](O)[C@H](O)[C@H]1O [Astilbin]
remaining activity at 3.75 µM ([1]; Well no.=6924): 106% | remaining activity at 1.25 µM ([2]; Well no.=6924): 114%

COc1ccc(C(=O)N2CCCC2=O)cc1 [Aniracetam]
remaining activity at 3.75 µM ([1]; Well no.=156): 108% | remaining activity at 3.75 µM ([1]; Well no.=1889): 95.2% | remaining activity at 1.25 µM ([2]; Well no.=156): 102% | remaining activity at 1.25 µM ([2]; Well no.=1889): 95.1%

CC1(C)C(=O)N(CCN2CCC(C(=O)c3ccc(F)cc3)CC2)c2ccccc21 [LY310762]
remaining activity at 3.75 µM ([1]; Well no.=7237): 100% | remaining activity at 1.25 µM ([2]; Well no.=7237): 102%

O=C(O[C@H]1C[C@H]2CC[C@@H](C1)[N+]21CCCC1)C(O)(c1ccccc1)c1ccccc1 [Trospium (chloride)]
remaining activity at 3.75 µM ([1]; Well no.=6571): 102% | remaining activity at 1.25 µM ([2]; Well no.=6571): 103%

COCC[n+]1c2c(n(Cc3cnccn3)c1C)C(=O)c1ccccc1C2=O [YM-155]
remaining activity at 3.75 µM ([1]; Well no.=6678): 91.4% | remaining activity at 1.25 µM ([2]; Well no.=6678): 94.8%
